Laboratory results: patent US12258328B2, “6-membered heteroaryl-containing aminopyridine compounds as EGFR inhibitors” (YUHAN CORPORATION, priority 2021, dated 2025)
Where two headings read alike, the source gives them in different places.

Legend:
EGFR del19/T790M/C797S = EGFR del19/T790M/C797S (Homo sapiens, UniProt P00533, C797S/DEL746-750/T790M); assay: Biochemical EGFR kinase assay (Lance Ultra TR-FRET), triple mutant del19/T790M/C797S
In short: (§1)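 Kinase activity is measured by TR-FRET phosphopeptide detection. Compounds span 0.003 μM to 10 μM; the 1 h reaction at room temperature is quenched with EDTA, then labelled antibody (2 nM) is incubated 60 min before reading.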

EGFR L858R/C797S = EGFR L858R/C797S (Homo sapiens, UniProt P00533, C797S/L858R); assay: Biochemical EGFR kinase assay (Lance Ultra TR-FRET), double mutant L858R/C797S
Sequence of EGFR L858R/C797S (P00533 25-1210 C797S/L858R): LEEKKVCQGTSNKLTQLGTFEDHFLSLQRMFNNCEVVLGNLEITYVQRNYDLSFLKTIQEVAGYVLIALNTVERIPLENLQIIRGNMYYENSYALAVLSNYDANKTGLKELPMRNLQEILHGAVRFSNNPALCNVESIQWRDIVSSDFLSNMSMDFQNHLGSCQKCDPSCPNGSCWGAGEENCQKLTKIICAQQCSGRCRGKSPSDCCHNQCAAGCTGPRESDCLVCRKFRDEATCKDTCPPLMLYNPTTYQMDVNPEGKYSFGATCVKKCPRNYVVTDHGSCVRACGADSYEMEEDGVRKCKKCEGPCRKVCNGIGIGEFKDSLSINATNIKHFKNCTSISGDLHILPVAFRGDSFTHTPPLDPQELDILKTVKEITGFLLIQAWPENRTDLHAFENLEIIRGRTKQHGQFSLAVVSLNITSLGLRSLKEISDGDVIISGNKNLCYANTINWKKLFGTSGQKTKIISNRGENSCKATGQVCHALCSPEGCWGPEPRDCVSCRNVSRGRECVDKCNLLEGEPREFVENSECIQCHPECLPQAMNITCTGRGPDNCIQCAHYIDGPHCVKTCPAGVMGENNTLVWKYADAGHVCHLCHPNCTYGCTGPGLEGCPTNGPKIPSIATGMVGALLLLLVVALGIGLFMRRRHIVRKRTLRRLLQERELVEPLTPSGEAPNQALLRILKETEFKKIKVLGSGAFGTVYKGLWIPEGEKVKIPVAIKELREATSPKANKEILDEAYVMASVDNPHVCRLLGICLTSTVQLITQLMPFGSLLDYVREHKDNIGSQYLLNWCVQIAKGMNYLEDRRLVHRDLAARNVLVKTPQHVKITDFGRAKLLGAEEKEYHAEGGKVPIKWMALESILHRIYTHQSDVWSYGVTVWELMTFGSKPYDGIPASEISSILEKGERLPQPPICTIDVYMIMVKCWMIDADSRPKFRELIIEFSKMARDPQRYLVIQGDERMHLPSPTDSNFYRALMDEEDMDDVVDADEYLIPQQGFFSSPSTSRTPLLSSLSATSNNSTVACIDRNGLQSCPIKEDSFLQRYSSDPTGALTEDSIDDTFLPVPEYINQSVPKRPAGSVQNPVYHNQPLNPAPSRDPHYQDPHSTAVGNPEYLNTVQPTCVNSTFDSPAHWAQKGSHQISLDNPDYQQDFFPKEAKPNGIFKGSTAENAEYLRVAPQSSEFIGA
In short: as §1

EGFR wildtype = EGFR wildtype (Homo sapiens, UniProt P00533); assay: Biochemical EGFR kinase assay (Lance Ultra TR-FRET), wildtype
Sequence of EGFR wildtype (P00533 25-1210): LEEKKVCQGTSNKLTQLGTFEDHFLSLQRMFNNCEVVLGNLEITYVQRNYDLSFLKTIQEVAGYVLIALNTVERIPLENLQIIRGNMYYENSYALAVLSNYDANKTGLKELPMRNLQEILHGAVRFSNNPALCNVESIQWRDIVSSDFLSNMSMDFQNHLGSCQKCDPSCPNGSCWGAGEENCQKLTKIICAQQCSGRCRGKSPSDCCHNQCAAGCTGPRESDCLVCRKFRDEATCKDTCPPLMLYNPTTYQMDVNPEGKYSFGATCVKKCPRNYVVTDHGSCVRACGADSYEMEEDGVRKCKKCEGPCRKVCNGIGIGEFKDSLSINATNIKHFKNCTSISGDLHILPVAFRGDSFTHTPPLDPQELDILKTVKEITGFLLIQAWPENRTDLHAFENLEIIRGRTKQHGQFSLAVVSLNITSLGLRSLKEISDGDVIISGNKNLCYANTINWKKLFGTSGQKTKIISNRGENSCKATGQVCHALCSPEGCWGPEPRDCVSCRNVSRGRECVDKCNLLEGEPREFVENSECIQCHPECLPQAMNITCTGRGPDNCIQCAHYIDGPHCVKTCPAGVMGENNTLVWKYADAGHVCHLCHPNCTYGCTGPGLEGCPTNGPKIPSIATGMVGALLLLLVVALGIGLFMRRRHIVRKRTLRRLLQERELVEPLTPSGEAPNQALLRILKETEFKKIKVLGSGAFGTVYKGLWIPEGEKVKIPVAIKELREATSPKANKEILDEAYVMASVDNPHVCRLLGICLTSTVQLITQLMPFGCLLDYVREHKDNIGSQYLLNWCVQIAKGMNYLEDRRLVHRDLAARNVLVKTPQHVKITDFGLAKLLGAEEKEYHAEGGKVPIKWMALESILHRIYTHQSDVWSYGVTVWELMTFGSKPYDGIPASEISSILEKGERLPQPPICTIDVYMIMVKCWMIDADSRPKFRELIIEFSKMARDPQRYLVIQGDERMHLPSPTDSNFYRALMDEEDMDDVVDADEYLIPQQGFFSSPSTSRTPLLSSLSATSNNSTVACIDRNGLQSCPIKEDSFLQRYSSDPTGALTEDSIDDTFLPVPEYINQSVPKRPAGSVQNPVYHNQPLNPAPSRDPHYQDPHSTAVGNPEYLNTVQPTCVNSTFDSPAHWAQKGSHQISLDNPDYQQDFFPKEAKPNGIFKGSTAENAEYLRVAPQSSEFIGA
In short: as §1

EGFR del19/C797S = EGFR del19/C797S (Homo sapiens, UniProt P00533, C797S/DEL746-750); assay: Biochemical EGFR kinase assay (Lance Ultra TR-FRET), double mutant del19/C797S
In short: as §1

EGFR L858R/T790M/C797S = EGFR L858R/T790M/C797S (Homo sapiens, UniProt P00533, C797S/L858R/T790M); assay: Biochemical EGFR kinase assay (Lance Ultra TR-FRET), triple mutant L858R/T790M/C797S
Sequence of EGFR L858R/T790M/C797S (P00533 25-1210 T790M/C797S/L858R): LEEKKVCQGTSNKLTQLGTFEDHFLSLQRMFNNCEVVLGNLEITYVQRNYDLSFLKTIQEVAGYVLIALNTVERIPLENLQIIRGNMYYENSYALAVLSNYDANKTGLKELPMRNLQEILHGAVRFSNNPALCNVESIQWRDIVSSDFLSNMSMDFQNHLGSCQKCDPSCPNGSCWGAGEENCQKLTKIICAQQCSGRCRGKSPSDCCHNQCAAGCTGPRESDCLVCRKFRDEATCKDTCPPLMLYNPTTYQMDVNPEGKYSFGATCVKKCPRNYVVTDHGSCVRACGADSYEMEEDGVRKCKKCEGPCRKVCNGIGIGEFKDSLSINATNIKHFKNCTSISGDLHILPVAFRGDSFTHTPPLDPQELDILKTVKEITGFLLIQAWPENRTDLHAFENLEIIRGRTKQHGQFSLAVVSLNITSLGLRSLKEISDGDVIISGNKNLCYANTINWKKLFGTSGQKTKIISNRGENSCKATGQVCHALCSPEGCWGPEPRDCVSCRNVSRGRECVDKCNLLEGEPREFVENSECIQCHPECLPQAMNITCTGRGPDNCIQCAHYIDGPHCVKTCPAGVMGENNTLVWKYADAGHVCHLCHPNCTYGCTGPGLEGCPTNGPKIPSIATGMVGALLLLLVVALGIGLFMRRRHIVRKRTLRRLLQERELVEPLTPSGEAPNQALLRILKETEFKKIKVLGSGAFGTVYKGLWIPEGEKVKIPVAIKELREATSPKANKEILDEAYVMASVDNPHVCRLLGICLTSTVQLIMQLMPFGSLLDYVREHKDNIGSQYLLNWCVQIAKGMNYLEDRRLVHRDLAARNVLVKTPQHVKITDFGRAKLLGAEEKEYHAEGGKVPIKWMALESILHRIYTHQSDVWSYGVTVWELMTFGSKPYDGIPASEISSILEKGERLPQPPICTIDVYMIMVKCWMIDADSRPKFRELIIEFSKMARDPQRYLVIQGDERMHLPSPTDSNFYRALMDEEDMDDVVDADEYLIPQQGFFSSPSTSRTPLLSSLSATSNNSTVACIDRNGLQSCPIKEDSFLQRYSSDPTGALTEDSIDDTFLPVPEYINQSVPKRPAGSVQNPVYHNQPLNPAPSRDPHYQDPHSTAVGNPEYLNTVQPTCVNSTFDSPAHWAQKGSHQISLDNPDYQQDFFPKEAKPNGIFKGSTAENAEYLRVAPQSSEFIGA
In short: as §1

[1] = ATP at Km, read-out: IC50 del19/T790M/C797S, Km ATP
[2] = IC50 del19/T790M/C797S, 100 μM ATP
[3] = ATP at Km, read-out: IC50 L858R/C797S, Km ATP
[4] = ATP at Km, read-out: IC50 WT, Km ATP
[5] = ATP at Km, read-out: IC50 del19/C797S, Km ATP
[6] = ATP at Km, read-out: IC50 L858R/T790M/C797S, Km ATP
[7] = IC50 L858R/T790M/C797S, 100 μM ATP
[8] = Km ATP, read-out: IC50 del19/T790M/C797S (nM) Km ATP
[9] = Km ATP, read-out: IC50 L858R/C797S (nM) Km ATP
[10] = Km ATP, read-out: IC50 WT (nM) Km ATP
[11] = Km ATP, read-out: IC50 del19/C797S (nM) Km ATP
[12] = Km ATP, read-out: IC50 L858R/T790M/C797S (nM) Km ATP

Sequence of EGFR del19/T790M/C797S (P00533 with tags, fused parts or gaps DEL746-750/T790M/C797S): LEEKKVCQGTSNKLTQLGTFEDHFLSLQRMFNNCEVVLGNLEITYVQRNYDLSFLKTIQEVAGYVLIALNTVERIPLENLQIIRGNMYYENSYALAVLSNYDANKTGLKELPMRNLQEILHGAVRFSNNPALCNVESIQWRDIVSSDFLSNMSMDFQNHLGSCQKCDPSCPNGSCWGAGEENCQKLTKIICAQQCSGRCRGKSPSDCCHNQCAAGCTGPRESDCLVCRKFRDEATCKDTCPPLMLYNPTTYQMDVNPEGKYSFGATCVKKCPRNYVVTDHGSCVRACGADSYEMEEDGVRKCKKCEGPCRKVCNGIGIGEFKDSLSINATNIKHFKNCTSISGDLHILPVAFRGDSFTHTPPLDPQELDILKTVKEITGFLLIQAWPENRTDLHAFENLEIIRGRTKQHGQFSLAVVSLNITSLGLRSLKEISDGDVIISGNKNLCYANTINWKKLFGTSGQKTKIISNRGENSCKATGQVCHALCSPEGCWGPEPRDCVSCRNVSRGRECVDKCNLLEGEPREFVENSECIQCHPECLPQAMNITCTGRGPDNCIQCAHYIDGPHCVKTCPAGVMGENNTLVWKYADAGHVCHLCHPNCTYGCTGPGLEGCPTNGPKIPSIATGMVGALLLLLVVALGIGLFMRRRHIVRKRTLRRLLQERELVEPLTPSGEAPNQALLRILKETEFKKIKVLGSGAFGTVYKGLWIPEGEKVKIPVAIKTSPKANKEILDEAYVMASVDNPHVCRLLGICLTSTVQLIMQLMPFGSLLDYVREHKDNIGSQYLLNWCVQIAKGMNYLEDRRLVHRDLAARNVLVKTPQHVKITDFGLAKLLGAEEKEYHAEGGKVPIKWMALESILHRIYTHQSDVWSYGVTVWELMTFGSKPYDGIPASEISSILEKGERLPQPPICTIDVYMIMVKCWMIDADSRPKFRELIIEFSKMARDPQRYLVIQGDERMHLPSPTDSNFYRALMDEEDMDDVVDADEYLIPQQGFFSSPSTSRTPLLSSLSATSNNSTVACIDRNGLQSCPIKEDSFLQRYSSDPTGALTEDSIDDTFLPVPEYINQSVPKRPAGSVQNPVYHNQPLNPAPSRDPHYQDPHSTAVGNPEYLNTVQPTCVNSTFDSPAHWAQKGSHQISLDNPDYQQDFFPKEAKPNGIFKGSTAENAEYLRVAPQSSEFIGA

Compound | IC50 (EGFR del19/T790M/C797S; [1]) [nM] | IC50 (EGFR del19/T790M/C797S; [2]) [nM] | IC50 (EGFR L858R/C797S; [3]) [nM] | IC50 (EGFR L858R/C797S; IC50 L858R/C797S, 100 μM ATP) [nM] | IC50 (EGFR wildtype; [4]) [nM] | IC50 (EGFR wildtype; IC50 WT, 100 μM ATP) [nM] | IC50 (EGFR del19/C797S; [5]) [nM] | IC50 (EGFR del19/C797S; IC50 del19/C797S, 100 μM ATP) [nM] | IC50 (EGFR L858R/T790M/C797S; [6]) [nM] | IC50 (EGFR L858R/T790M/C797S; [7]) [nM] | IC50 (EGFR del19/T790M/C797S; IC50 del19/T790M/C797S (nM) 100 μM ATP, 100 μM ATP) [nM] | IC50 (EGFR del19/T790M/C797S; [8]) [nM] | IC50 (EGFR L858R/C797S; IC50 L858R/C797S (nM) 100 μM ATP, 100 μM ATP) [nM] | IC50 (EGFR L858R/C797S; [9]) [nM] | IC50 (EGFR wildtype; IC50 WT (nM) 100 μM ATP, 100 μM ATP) [nM] | IC50 (EGFR wildtype; [10]) [nM] | IC50 (EGFR del19/C797S; IC50 del19/C797S (nM) 100 μM ATP, 100 μM ATP) [nM] | IC50 (EGFR del19/C797S; [11]) [nM] | IC50 (EGFR L858R/T790M/C797S; IC50 L858R/T790M/C797S (nM) 100 μM ATP, 100 μM ATP) [nM] | IC50 (EGFR L858R/T790M/C797S; [12]) [nM]
C[C@]1(O)CC[C@@H](Nc2cc(Nc3ccnc(-c4cnn(S(=O)(=O)C5CC5)c4)n3)ncc2-c2ccc(C(F)(F)F)c(F)n2)CC1 [Example 181, (1s,4s)-4-((6′-((2-(1-(Cyclopropylsulfonyl)-1H-pyrazol-4-yl)pyrimidin-4-yl)amino)-6-fluoro-5-(trifluoromethyl)-[2,3′-bipyridin]-4′-yl)amino)-1-methylcyclohexan-1-ol] | 5.5 | 10 | 19.7 | 157 | 129 | > 10000 | 16.2 | 41.5 | 2.2 | 20.3 | – | – | – | – | – | – | – | – | – | –
COC(c1ccc(-c2cnc(Nc3ccnc(-c4cnn(S(=O)(=O)C5CC5)c4)n3)cc2NC2CCC(C)(O)CC2)nc1)C(F)(F)F (centres unmarked) [Example 260, (1s,4s)-4-((6′-((2-(1-(Cyclopropylsulfonyl)-1H-pyrazol-4-yl)pyrimidin-4-yl)amino)-5-(2,2,2-trifluoro-1-methoxyethyl)-[2,3′-bipyridin]-4′-yl)amino)-1-methylcyclohexan-1-ol] | 6.9 | – | 8.8 | – | 7.8 | – | 10.7 | – | 4.1 | – | – | – | – | – | – | – | – | – | – | –
CN1CCN(C(=O)c2ccc(-c3cnc(Nc4ccnc(-c5cnn(S(=O)(=O)C6CC6)c5)n4)cc3N[C@H]3CC[C@@H](CO)CC3)nc2)CC1 [Example 202, (6′-((2-(1-(Cyclopropylsulfonyl)-1H-pyrazol-4-yl)pyrimidin-4-yl)amino)-4′-(((1s,4s)-4-(hydroxymethyl)cyclohexyl)amino)-[2,3′-bipyridin]-5-yl)(4-methylpiperazin-1-yl)methanone] | 0.2 | 0.3 | 0.03 | 0.3 | 0.2 | 94.2 | 0.1 | 0.2 | 0.1 | 0.1 | – | – | – | – | – | – | – | – | – | –
CC(C)(O)[C@H]1CC[C@@H](Nc2cc(Nc3ccnc(-c4cnn(S(=O)(=O)C5CC5)c4)n3)ncc2-c2ccc(S(=O)(=O)N3CCOCC3)cn2)CC1 [Example 184, 2-((1s,4s)-4-((6′-((2-(1-(Cyclopropylsulfonyl)-1H-pyrazol-4-yl)pyrimidin-4-yl)amino)-5-(morpholinosulfonyl)-[2,3′-bipyridin]-4′-yl)amino)cyclohexyl)propan-2-ol] | 9.1 | 2.8 | 2.2 | 12.9 | 15.2 | > 10000 | 2.7 | 12.2 | – | 0.8 | – | – | – | – | – | – | – | – | – | –
CN(C)Cc1ccc(-c2cnc(Nc3ccnc(-c4cnn(S(=O)(=O)C5CC5)c4)n3)cc2N[C@H]2CC[C@@H](C(C)(C)O)CC2)nc1 [Example 26, 2-((1s,4s)-4-((6′-((2-(1-(Cyclopropylsulfonyl)-1H-pyrazol-4-yl)pyrimidin-4-yl)amino)-5-((dimethylamino)methyl)-[2,3′-bipyridin]-4′-yl)amino)cyclohexyl)propan-2-ol] | – | – | – | – | – | – | – | – | – | – | 0.4 | 0.4 | 0.7 | 0.1 | 107 | 0.9 | 0.2 | 0.2 | 0.4 | 0.2
CN1CCC(Oc2ccc(-c3cnc(Nc4ccnc(-c5cnn(CC(F)F)c5)n4)cc3NC3CCC(F)(F)C3)nc2)CC1 (centres unmarked) [Example 138, N^4′-(3,3-Difluorocyclopentyl)-N^6′-(2-(1-(2,2-difluoroethyl)-1H-pyrazol-4-yl)pyrimidin-4-yl)-5-((1-methylpiperidin-4-yl)oxy)-[2,3′-bipyridine]-4′,6′-diamine] | – | – | – | – | – | – | – | – | – | – | – | 0.1 | – | 1.6 | – | 32 | – | 4.9 | – | 0.2
O=S(=O)(C1CC1)n1cc(-c2nccc(Nc3cc(N[C@H]4CC[C@@H](CO)CC4)c(-c4ccc(CC(F)(F)F)cn4)cn3)n2)cn1 [Example 219, ((1s,4s)-4-((6′-((2-(1-(Cyclopropylsulfonyl)-1H-pyrazol-4-yl)pyrimidin-4-yl)amino)-5-(2,2,2-trifluoroethyl)-[2,3′-bipyridin]-4′-yl)amino)cyclohexyl)methanol] | 3.2 | 1.8 | 2.9 | 27.4 | 12.1 | 2670 | 4.9 | 8.7 | – | 2.9 | – | – | – | – | – | – | – | – | – | –
CN(C)CCOc1ccnc(-c2cnc(Nc3ccnc(-c4cnn(S(=O)(=O)C5CC5)c4)n3)cc2N[C@H]2CC[C@@](C)(O)CC2)c1 [Example 287, (1s,4s)-4-((6′-((2-(1-(Cyclopropylsulfonyl)-1H-pyrazol-4-yl)pyrimidin-4-yl)amino)-4-(2-(dimethylamino)ethoxy)-[2,3′-bipyridin]-4′-yl)amino)-1-methylcyclohexan-1-ol] | 0.2 | 0.3 | 0.8 | 44 | 3 | 5140 | 0.4 | 1 | 0.1 | 0.1 | – | – | – | – | – | – | – | – | – | –
CC(O)(c1ccc(-c2cnc(Nc3ccnc(-c4cnn(S(=O)(=O)C5CC5)c4)n3)cc2NC2CCC(CO)CC2)nc1)C(F)(F)F (centres unmarked) [Example 231, 2-(6′-((2-(1-(Cyclopropylsulfonyl)-1H-pyrazol-4-yl)pyrimidin-4-yl)amino)-4′-(((1s,4s)-4-(hydroxymethyl)cyclohexyl)amino)-[2,3′-bipyridin]-5-yl)-1,1,1-trifluoropropan-2-ol] | 1.4 | 2 | 1.2 | 4.6 | 4.1 | 502 | 1.7 | 6.4 | 0.4 | 0.9 | – | – | – | – | – | – | – | – | – | –
FC(F)Cn1cc(-c2nccc(Nc3cc(N[C@H]4CC[C@@H](F)CC4)c(-c4ccc(N5CCOCC5)cn4)cn3)n2)cn1 [Example 137, N^6′-(2-(1-(2,2-Difluoroethyl)-1H-pyrazol-4-yl)pyrimidin-4-yl)-N^4′-((1s,4s)-4-fluorocyclohexyl)-5-morpholino-[2,3′-bipyridine]-4′,6′-diamine] | – | – | – | – | – | – | – | – | – | – | – | 1.1 | – | 6.4 | – | 272 | – | 74.4 | – | 0.2
CC(C)Nc1cc(Nc2ccnc(-c3cnn(S(=O)(=O)C4CC4)c3)n2)ncc1-c1ccc(CN2CCOCC2)cn1 [Example 125, N^6′-(2-(1-(Cyclopropylsulfonyl)-1H-pyrazol-4-yl)pyrimidin-4-yl)-N^4′-isopropyl-5-(morpholinomethyl)-[2,3′-bipyridine]-4′,6′-diamine] | – | – | – | – | – | – | – | – | – | – | – | 0.7 | – | 12.1 | – | 44.8 | – | 8.9 | – | 0.3
CN(C)CC1CCC(Nc2cc(Nc3ccnc(-c4cnn(S(=O)(=O)C5CC5)c4)n3)ncc2-c2ccc(C(C)(O)C(F)(F)F)cn2)CC1 (centres unmarked) [Example 234, 2-(6′-((2-(1-(Cyclopropylsulfonyl)-1H-pyrazol-4-yl)pyrimidin-4-yl)amino)-4′-(((1s,4s)-4-((dimethylamino)methyl)cyclohexyl)amino)-[2,3′-bipyridin]-5-yl)-1,1,1-trifluoropropan-2-ol] | 0.5 | 0.3 | 0.3 | 0.7 | 0.7 | 122 | 0.2 | 0.5 | 0.2 | 0.2 | – | – | – | – | – | – | – | – | – | –
